Measured values published in patent US20070202548A1, “SCREENING ASSAY TO IDENTIFY INHIBITORS OF THE MURD ENZYME USING AN ACTIVATOR-I[…] ENZYME” (priority 2002, published 2007).

Assays:
[1] = biological target: T1, E. faecalis MurD (Enterococcus faecalis, UniProt O07108, A218V/A300V/N165D/T307K); assay: stability of E. faecalis Mur D in DMSO; type: biochemical; settings: DMSO concentration up to 5%, FIG. 4
[2] = system: Staphylococcus aureus Mur D enzyme; assay: salt activation of S. aureus MurD; type: biochemical; settings: FIG. 2
[3] = biological target: T1, E. faecalis MurD; type: biochemical; settings: FIG. 1 / FIG. 3
[4] = biological target: E. coli enzyme (MurD) (Escherichia coli, UniProt P14900); settings: FIG. 3
Sequence of E. coli enzyme (MurD) (P14900 whole entry): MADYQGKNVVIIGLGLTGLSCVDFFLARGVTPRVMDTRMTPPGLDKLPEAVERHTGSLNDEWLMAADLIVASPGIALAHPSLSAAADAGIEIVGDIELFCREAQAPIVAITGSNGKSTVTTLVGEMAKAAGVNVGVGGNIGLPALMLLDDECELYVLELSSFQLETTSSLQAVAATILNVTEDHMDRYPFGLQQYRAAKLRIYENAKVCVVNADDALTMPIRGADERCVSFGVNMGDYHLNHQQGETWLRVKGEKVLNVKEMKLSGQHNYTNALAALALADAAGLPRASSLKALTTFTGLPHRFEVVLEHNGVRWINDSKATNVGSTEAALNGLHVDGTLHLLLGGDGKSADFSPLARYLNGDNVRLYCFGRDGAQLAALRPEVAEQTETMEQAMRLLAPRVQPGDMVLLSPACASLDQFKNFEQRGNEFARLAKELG

T1 sequence (O07108 whole entry N165D/A218V/A300V/T307K): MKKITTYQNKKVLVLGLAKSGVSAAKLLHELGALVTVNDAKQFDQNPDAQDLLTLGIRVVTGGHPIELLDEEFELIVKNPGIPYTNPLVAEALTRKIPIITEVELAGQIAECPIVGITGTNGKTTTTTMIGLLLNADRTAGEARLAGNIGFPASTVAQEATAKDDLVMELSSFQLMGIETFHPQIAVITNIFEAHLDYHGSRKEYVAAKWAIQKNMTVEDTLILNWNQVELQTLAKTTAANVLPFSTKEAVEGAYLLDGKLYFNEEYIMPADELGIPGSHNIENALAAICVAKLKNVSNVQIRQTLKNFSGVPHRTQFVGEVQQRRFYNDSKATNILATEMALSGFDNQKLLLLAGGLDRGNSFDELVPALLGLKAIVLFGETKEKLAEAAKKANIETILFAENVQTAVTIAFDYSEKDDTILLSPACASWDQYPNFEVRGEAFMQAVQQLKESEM

Compound	activation of S. aureus Mur D enzyme by cations [2]	effect of salt on E. faecalis MurD enzyme activity [3]	other results
C[S+](C)[O-] [DMSO, dimethylsulfoxide]	–	–	effect of DMSO on E. faecalis MurD [1]: not affected
[K+] [K^+, potassium]	activated	–	–
N [NH4^+, ammonium]	activated	–	–
O=S(=O)(O)O [SO4-ions]	–	inhibitor	–
N.O=CO [ammonium formate]	–	independent	dependence of E. coli enzyme activity on presence of salt [4]: dependent
